Source: patent publication US8680094B2, “1, 4-benzoxazine compounds and derivatives thereof as therapeutic drugs for the treatment of neurodegenerative conditions” (Board of Regents, The University of Texas System, priority 2008, dated 2014)

What was measured:
Assay in all cases: In vitro kinase activity
Type in all cases: biochemical
[1] = biological target: p38α (Homo sapiens, UniProt Q16539); conditions: percentage of control assays without compound, mean of duplicate
Procedure: (§1) To better understand the mechanism of action of the compounds of the present invention, but in no way a limitation; the effects of HSB-13 and ASK-2a on 20 different kinases were examined in vitro. At 500 nM concentration, ASK-2a inhibited the kinase activities of GSK3α, GSK3β, p38α, p38β, JNK3, MLK3, and B-Raf substantially. […] As described above, ASK-2a protects cerebellar granule neurons against LK-induced death but is ineffective against HCA-induced toxicity of HT-22 cells. In contrast, HSB-13 is protective in both paradigms. […] Previous studies have established that CDK inhibitors can protect neurons against a number of different apoptotic stimuli.
(§2) The activity of each kinase was measured in vitro in the presence either 100 nM or 500 nM ASK-2a. Kinase activity is expressed as a percentage of that in control assays (without ASK-2a). The values are mean of assays performed in duplicate. Substantial inhibition of kinase activity (>20%) is in bold type.
(§3) Table 3: Effect of HSB-13 at 500 nM on 20 different kinases measured in vitro. Kinase activity is expressed as a percentage of that in control assays (without HSB-13). The values are mean of assays performed in duplicate. Substantial inhibition of kinase activity (>20%) is in bold type.

[2] = biological target: MLK3 (Homo sapiens, UniProt Q16584); conditions: 100 nM, percentage of control assays without compound, mean of duplicate
Procedure: as §1, §2, §3

[3] = biological target: T1, ASK1 (Homo sapiens, UniProt Q99683); conditions: percentage of control assays without compound, mean of duplicate
T1 sequence (Q99683 1-1374): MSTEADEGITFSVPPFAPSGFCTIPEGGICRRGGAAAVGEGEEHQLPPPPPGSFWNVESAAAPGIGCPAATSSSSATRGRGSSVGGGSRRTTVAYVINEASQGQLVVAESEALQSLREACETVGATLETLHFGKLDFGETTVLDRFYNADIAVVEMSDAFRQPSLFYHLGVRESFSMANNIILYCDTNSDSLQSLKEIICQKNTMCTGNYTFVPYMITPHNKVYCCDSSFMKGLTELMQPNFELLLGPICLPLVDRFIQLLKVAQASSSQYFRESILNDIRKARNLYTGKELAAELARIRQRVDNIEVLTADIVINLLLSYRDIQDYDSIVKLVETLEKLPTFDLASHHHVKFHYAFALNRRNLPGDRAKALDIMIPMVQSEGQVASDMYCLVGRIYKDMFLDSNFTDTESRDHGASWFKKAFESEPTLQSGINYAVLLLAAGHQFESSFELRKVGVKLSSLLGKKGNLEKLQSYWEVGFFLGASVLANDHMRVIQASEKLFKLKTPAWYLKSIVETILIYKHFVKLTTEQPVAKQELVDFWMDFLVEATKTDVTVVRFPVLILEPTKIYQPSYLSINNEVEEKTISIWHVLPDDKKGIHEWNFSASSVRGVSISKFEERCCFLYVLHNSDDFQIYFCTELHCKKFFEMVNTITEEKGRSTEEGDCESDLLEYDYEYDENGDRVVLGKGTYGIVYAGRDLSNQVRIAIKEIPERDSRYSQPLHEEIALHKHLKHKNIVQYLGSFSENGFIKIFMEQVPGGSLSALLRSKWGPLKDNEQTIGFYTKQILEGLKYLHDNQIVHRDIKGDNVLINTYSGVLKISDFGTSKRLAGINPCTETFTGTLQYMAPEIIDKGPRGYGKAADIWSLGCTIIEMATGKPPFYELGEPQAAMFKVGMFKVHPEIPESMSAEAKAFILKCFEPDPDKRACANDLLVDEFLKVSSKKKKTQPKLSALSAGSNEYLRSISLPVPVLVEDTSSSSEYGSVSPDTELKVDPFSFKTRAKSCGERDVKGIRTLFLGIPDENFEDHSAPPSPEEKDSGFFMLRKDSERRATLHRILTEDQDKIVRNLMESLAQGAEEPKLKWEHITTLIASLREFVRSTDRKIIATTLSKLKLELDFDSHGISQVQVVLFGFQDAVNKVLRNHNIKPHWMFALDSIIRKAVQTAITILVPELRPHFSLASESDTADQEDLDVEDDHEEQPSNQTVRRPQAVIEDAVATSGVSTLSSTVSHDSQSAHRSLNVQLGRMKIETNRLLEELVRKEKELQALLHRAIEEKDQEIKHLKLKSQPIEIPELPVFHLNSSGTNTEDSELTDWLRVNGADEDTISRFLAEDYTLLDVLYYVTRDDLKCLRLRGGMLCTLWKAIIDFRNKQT
Procedure: as §1, §2, §3

[4] = biological target: MEKK1 (Homo sapiens, UniProt Q13233); conditions: percentage of control assays without compound, mean of duplicate
MEKK1, sequence (Q13233 whole entry, species assumed): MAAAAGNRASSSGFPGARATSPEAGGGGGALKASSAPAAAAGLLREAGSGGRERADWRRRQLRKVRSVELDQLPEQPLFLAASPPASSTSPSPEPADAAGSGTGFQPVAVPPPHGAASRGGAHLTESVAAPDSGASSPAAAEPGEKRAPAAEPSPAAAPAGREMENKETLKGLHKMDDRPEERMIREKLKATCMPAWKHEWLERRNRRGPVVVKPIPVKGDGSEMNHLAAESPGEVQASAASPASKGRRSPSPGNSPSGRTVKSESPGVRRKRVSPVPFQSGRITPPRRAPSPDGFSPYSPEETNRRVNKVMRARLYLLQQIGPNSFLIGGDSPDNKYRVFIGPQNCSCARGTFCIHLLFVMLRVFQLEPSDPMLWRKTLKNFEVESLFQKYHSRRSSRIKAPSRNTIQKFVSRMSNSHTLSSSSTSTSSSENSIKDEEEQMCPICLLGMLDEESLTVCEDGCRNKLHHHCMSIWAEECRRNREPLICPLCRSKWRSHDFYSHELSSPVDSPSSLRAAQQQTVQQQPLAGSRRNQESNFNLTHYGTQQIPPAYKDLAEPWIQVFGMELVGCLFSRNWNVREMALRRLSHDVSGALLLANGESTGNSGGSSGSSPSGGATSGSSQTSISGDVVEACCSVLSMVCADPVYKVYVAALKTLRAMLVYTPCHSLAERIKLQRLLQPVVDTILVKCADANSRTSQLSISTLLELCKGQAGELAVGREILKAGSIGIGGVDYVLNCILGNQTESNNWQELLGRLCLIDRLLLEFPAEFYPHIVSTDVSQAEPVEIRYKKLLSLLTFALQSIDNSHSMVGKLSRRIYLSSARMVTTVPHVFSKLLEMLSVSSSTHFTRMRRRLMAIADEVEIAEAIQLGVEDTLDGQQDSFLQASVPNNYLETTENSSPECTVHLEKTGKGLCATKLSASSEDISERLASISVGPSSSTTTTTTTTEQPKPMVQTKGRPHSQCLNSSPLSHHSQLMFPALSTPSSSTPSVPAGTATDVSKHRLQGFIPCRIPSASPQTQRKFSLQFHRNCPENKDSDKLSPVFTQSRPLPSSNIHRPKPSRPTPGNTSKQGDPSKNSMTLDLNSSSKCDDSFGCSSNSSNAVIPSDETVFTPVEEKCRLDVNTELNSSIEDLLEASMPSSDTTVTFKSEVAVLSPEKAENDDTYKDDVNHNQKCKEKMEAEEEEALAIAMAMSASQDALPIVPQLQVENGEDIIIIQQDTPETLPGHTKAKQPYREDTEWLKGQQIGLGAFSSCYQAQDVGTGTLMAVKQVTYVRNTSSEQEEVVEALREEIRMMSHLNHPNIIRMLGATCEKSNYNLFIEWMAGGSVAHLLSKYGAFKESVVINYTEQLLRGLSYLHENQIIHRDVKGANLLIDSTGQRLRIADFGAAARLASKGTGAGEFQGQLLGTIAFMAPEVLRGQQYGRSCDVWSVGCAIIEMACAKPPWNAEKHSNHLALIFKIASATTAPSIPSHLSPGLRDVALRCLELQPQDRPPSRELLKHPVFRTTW
Procedure: as §1, §2, §3

[5] = biological target: GSK3β (Homo sapiens, UniProt P49841); conditions: percentage of control assays without compound, mean of duplicate
GSK3β, sequence (P49841 whole entry, species assumed): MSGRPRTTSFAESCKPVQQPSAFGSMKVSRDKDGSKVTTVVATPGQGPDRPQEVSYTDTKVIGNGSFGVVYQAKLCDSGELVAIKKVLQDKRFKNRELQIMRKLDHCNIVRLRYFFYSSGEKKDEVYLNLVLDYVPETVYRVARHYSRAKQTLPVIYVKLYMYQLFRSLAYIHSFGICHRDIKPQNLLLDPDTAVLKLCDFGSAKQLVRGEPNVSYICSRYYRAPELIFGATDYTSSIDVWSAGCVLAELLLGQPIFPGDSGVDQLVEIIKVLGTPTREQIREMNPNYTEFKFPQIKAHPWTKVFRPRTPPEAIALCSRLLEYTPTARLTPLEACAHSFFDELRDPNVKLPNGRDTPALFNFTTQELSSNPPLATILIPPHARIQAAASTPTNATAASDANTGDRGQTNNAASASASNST
Procedure: as §1, §2, §3

[6] = biological target: CDK2/Cyclin A1 (Homo sapiens, UniProt P24941); conditions: percentage of control assays without compound, mean of duplicate
Procedure: as §1, §2, §3

[7] = biological target: DAPK1 (Homo sapiens, UniProt P53355); conditions: percentage of control assays without compound, mean of duplicate
DAPK1, sequence (P53355 whole entry, species assumed): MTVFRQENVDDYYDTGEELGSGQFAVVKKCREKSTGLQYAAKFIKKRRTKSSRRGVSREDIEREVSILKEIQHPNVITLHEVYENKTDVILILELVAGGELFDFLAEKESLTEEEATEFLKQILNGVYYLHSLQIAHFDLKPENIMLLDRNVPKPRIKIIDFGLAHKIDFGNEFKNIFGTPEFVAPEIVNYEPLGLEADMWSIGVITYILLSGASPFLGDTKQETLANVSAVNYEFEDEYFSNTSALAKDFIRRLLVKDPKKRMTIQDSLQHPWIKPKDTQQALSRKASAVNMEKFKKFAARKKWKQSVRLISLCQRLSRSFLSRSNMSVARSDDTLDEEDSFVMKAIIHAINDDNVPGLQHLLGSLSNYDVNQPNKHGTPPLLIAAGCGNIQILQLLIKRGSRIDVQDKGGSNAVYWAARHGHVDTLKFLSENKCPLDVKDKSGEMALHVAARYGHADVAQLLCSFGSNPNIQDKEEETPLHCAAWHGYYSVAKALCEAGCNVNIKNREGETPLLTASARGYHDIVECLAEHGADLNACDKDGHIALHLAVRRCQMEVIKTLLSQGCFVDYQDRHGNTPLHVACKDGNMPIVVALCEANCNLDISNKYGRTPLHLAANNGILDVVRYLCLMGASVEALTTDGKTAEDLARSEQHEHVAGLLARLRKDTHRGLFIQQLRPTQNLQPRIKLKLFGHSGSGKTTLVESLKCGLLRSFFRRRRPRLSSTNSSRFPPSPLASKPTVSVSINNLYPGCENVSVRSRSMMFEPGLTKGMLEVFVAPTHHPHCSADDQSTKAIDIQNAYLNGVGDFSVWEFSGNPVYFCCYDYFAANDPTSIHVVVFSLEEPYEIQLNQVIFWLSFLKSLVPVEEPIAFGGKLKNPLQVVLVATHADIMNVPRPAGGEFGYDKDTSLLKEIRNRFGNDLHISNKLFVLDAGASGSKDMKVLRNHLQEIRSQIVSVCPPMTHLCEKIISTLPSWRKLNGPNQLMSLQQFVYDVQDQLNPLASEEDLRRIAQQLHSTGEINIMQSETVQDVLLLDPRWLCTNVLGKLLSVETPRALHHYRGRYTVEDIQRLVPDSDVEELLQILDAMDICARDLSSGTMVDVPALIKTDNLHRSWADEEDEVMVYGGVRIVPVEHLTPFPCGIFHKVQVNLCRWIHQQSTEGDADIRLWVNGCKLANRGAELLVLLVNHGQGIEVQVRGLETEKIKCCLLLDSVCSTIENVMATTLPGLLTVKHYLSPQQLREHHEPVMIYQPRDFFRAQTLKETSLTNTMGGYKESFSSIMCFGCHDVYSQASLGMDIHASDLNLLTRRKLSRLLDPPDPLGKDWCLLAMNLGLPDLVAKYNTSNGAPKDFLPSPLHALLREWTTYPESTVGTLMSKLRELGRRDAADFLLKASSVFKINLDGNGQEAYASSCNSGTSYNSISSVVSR
Procedure: as §1, §2, §3

[8] = biological target: JNK3 (Homo sapiens, UniProt P53779); conditions: percentage of control assays without compound, mean of duplicate
JNK3, sequence (P53779 whole entry, species assumed): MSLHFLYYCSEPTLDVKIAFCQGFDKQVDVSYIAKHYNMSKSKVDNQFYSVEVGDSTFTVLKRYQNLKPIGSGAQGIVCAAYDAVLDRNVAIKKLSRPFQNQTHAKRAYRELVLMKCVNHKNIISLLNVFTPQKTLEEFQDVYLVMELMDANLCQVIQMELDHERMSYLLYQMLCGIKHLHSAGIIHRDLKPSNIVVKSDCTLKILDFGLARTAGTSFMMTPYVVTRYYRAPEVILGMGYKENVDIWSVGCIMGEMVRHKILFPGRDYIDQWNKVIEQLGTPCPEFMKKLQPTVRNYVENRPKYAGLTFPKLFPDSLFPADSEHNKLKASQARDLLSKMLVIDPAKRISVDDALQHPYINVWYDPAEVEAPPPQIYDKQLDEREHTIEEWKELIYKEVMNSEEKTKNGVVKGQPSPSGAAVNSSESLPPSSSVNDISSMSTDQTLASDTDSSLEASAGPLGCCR
Procedure: as §1, §2, §3

[9] = biological target: JNK2 (Homo sapiens, UniProt P45984); conditions: percentage of control assays without compound, mean of duplicate
JNK2, sequence (P45984 whole entry, species assumed): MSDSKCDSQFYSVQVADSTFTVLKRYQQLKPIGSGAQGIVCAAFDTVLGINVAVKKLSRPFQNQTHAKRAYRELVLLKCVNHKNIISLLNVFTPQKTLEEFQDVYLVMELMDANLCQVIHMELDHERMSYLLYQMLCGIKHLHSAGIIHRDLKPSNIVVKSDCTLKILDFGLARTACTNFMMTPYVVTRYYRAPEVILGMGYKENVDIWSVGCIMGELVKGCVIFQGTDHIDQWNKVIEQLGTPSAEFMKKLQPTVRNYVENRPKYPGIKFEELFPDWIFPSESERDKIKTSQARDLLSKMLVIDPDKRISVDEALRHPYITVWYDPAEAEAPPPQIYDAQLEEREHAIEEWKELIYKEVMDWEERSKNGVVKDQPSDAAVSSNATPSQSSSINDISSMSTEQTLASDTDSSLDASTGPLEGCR
Procedure: as §1, §2, §3

[10] = 100 nM, listed as ASK2a, 0.1 µM

p38α, sequence (Q16539 whole entry): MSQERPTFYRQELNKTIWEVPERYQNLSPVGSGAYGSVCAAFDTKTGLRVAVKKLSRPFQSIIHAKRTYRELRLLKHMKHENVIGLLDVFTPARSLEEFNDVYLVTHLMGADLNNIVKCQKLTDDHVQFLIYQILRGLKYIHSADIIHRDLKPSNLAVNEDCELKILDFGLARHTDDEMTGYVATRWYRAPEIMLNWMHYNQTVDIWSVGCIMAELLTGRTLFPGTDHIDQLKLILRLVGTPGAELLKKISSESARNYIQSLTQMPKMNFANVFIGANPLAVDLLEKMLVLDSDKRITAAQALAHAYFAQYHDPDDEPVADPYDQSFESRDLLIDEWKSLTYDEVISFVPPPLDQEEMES

Compound	% ACTIVITY ([3]; 100 nM) [%]	% ACTIVITY ([3]; 500 nM) [%]	% ACTIVITY ([4]; 100 nM) [%]	% ACTIVITY ([4]; 500 nM) [%]	% ACTIVITY ([6]; 100 nM) [%]	% ACTIVITY ([7]; 100 nM) [%]	% ACTIVITY ([7]; 500 nM) [%]	% ACTIVITY ([9]; 100 nM) [%]	also measured
O=C1Nc2ccccc2OC1=Cc1cc(Br)c(O)c(Br)c1 [ASK-2a]	104	97	100	98	104	98	95	95	% ACTIVITY ([1]; 100 nM, 0.1 µM): 76%; % ACTIVITY [1, 10]: inhibited efficiently; % ACTIVITY ([2]; 0.1 µM): 88%; % ACTIVITY ([2]; listed as ASK2a, 0.1 µM): inhibited less efficiently; % ACTIVITY ([5]; 100 nM, 0.1 µM): 55%; % ACTIVITY [5, 10]: inhibited efficiently; % ACTIVITY ([6]; 500 nM): 100%; % ACTIVITY ([8]; 100 nM, 0.1 µM): 94%; % ACTIVITY [8, 10]: inhibited efficiently; % ACTIVITY ([9]; 500 nM): 93%
Nc1ccc2c(c1)NC(=O)/C(=C/c1cc(Br)c(O)c(Br)c1)O2 [HSB-13, (Z)-6-amino-2-(3,′5′-dibromo-4′-hydrozybenzylidene)-2H-benzo[b][1,4]oxazin-3(4H)-one]	104	95	99	98	82	96	84	98	% ACTIVITY ([1]; 100 nM): 88%; % ACTIVITY ([1]; 500 nM): 43%; % ACTIVITY [2]: 94%; % ACTIVITY ([5]; 500 nM): 19%; % ACTIVITY ([8]; 100 nM): 92%; % ACTIVITY ([8]; 500 nM): 92%
